Assay results reported in patent US20100311714A1, “1H-IMIDAZO[4,5-c]QUINOLINONE COMPOUNDS” (priority 2009, published 2010).
Like-named read-outs stand apart in the source and are kept apart here.

Target: T1, PI3K delta (Homo sapiens, UniProt O00329)
T1 construct: for the full-length p110-d subunit are generated and fused by overlapping PCR; His tag (C); made in house; host or cells: baculovirus BV1060; Tn5 (Trichoplusia ni) or TiniPro insect cells
Test: PI3K delta kinase assay (Kinase-Glo luminescence)
Assay type: biochemical
Summary of the method: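 IC50s derive from 8-point inhibition curves fitted to a 4-parameter logistic model. Reaction: 10 nM purified p110δ/p85 iSH2 fusion, 1 μM ATP, 10 μg/mL PI substrate, pH 7.5 Tris buffer with MgCl2, NaCl, CHAPS and DTT, run 60 min at room temperature; remaining ATP read by Kinase-Glo luminescence.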

T1 sequence (O00329 with tags, fused parts or gaps limits assumed): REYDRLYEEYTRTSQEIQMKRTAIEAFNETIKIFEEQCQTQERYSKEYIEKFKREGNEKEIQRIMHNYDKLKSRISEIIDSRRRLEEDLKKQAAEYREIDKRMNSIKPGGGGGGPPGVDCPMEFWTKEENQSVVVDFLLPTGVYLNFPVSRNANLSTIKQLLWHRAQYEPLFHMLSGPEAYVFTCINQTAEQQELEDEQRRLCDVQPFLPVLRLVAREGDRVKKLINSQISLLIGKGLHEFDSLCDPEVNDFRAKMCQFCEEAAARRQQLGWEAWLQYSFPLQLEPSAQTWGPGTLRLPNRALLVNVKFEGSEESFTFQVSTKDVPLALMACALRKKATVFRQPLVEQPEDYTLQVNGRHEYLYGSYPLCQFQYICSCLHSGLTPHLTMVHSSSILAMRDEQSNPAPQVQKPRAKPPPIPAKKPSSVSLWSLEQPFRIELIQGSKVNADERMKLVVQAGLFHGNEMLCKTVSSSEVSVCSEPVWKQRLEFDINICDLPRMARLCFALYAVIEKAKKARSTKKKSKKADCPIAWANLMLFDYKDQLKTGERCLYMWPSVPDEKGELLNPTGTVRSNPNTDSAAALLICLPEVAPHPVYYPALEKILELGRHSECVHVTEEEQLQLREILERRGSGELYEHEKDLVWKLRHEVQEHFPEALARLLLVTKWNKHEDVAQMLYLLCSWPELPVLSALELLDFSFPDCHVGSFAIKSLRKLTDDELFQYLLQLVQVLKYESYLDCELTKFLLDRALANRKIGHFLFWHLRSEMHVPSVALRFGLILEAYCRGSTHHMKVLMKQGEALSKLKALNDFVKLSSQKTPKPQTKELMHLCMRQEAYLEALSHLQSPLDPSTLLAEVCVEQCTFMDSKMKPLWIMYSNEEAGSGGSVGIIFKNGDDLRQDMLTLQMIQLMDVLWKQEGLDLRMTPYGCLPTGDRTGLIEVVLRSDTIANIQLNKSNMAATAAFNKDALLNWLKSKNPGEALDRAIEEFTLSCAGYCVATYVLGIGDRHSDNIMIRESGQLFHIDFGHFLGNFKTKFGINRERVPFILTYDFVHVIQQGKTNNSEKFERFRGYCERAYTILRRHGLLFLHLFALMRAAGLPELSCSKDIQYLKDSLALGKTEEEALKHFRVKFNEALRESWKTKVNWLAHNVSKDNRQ

Structure (SMILES) | IC50 (read-out: EPK_PI3Kdelta/IC50) [nM] | IC50 (read-out: PI3Kdelta/IC50) [nM]
CCNc1ncc(-c2ccc3ncc4c(c3c2)n(-c2ccc(N3CC[C@@H](O)C3)nc2C)c(=O)n4C)cc1C(F)(F)F [Example 34.2, 8-(6-Ethylamino-5-trifluoromethyl-pyridin-3-yl)-1-[6-((R)-3-hydroxy-pyrrolidin-1-yl)-2-methyl-pyridin-3-yl]-3-methyl-1,3-dihydro-imidazo[4,5-c]quinolin-2-one] | 12 | 
CNc1ncc(-c2ccc3ncc4c(c3c2)n(-c2ccc(N3CC(F)(F)C3)nc2C)c(=O)n4C)cn1 [Example 24.1, 1-[6-(3,3-Difluoro-azetidin-1-yl)-2-methyl-pyridin-3-yl]-3-methyl-8-(2-methylamino-pyrimidin-5-yl)-1,3-dihydro-imidazo[4,5-c]quinolin-2-one] | 164 | 
CCNc1cc(-c2ccc3ncc4c(c3c2)n(-c2ccc(N3CC(O)C3)nc2C)c(=O)n4C)cnc1CO [Example 29.2, 8-(5-Ethylamino-6-hydroxymethyl-pyridin-3-yl)-1-[6-(3-hydroxy-azetidin-1-yl)-2-methyl-pyridin-3-yl]-3-methyl-1,3-dihydro-imidazo[4,5-c]quinolin-2-one] | 19 | 
Cc1nc(N2CCN(C)C(=O)C2)ccc1-n1c(=O)n(C)c2cnc3ccc(-c4cnc(N)c(C(F)(F)F)c4)cc3c21 [Example 21.1, 8-(6-Amino-5-trifluoromethyl-pyridin-3-yl)-3-methyl-1-[2-methyl-6-(4-methyl-3-oxo-piperazin-1-yl)-pyridin-3-yl]-1,3-dihydro-imidazo[4,5-c]quinolin-2-one] | 5 | 
CNc1ncc(-c2ccc3ncc4c(c3c2)n(-c2ccc(N3CC[C@H](O)C3)nc2C)c(=O)n4C)cc1C(F)(F)F [Example 32.5, 1-[6-((S)-3-Hydroxy-pyrrolidin-1-yl)-2-methyl-pyridin-3-yl]-3-methyl-8-(6-methylamino-5-trifluoromethyl-pyridin-3-yl)-1,3-dihydro-imidazo[4,5-c]quinolin-2-one] | 4 | 
CCOc1ncc(-c2ccc3ncc4c(c3c2)n(-c2cccnc2C)c(=O)n4C)cn1 [Example 2.5, 8-(2-Ethoxy-pyrimidin-5-yl)-3-methyl-1-(2-methyl-pyridin-3-yl)-1,3-dihydro-imidazo[4,5-c]quinolin-2-one] |  | 58
COc1ccc(-c2ccc3ncc4c(c3c2)n(-c2ncccc2C)c(=O)n4C)cc1OC [Example 3.10, 8-(3,4-Dimethoxy-phenyl)-3-methyl-1-(3-methyl-pyridin-2-yl)-1,3-dihydro-imidazo[4,5-c]quinolin-2-one] |  | 151
CNc1ncc(-c2ccc3ncc4c(c3c2)n(-c2ccc(C(C)(C)O)nc2C)c(=O)n4C)cc1F [Example 31.1, 8-(5-Fluoro-6-methylamino-pyridin-3-yl)-1-[6-(1-hydroxy-1-methyl-ethyl)-2-methyl-pyridin-3-yl]-3-methyl-1,3-dihydro-imidazo[4,5-c]quinolin-2-one] | 3 | 
Cc1nc(C(C)(C)O)ccc1-n1c(=O)n(C)c2cnc3ccc(-c4cncc(C(C)(C)C#N)c4)cc3c21 [Example 31.6, 2-(5-{1-[6-(1-Hydroxy-1-methyl-ethyl)-2-methyl-pyridin-3-yl]-3-methyl-2-oxo-2,3-dihydro-1H-imidazo[4,5-c]quinolin-8-yl}-pyridin-3-yl)-2-methyl-propionitrile] | 7 | 
COc1ccc(-c2ccc3ncc4c(c3c2)n(-c2cnccc2C)c(=O)n4C)cn1 [Example 4.3, 8-(6-Methoxy-pyridin-3-yl)-3-methyl-1-(4-methyl-pyridin-3-yl)-1,3-dihydro-imidazo[4,5-c]quinolin-2-one] |  | 120
Cn1c(=O)n(-c2cccnc2F)c2c3cc(-c4cnc(N)c(C(F)(F)F)c4)ccc3ncc21 [Example 6.2, 8-(6-Amino-5-trifluoromethyl-pyridin-3-yl)-1-(2-fluoro-pyridin-3-yl)-3-methyl-1,3-dihydro-imidazo[4,5-c]quinolin-2-one] |  | 12
Cc1nc(N2CCC2)ccc1-n1c(=O)n(C)c2cnc3ccc(-c4cncc(N5CCC5)c4)cc3c21 [Example 23.1, 1-(6-Azetidin-1-yl-2-methyl-pyridin-3-yl)-8-(5-azetidin-1-yl-pyridin-3-yl)-3-methyl-1,3-dihydro-imidazo[4,5-c]quinolin-2-one] | 84 | 
Cc1cccnc1-n1c(=O)n(C)c2cnc3ccc(-c4cnc(N)c(C(F)(F)F)c4)cc3c21 [Example 3.12, 8-(6-Amino-5-trifluoromethyl-pyridin-3-yl)-3-methyl-1-(3-methyl-pyridin-2-yl)-1,3-dihydro-imidazo[4,5-c]quinolin-2-one] |  | 21
CCOc1ncc(-c2ccc3ncc4c(c3c2)n(-c2ncccc2C)c(=O)n4C)cn1 [Example 3.1, 8-(2-Ethoxy-pyrimidin-5-yl)-3-methyl-1-(3-methyl-pyridin-2-yl)-1,3-dihydro-imidazo[4,5-c]quinolin-2-one] |  | 851
Cc1nc(F)ccc1-n1c(=O)n(C)c2cnc3ccc(-c4cnc(N)c(C(F)(F)F)c4)cc3c21 [Example 7.1, 8-(6-Amino-5-trifluoromethyl-pyridin-3-yl)-1-(6-fluoro-2-methyl-pyridin-3-yl)-3-methyl-1,3-dihydro-imidazo[4,5-c]quinolin-2-one] |  | 5
Cn1c(=O)n(-c2cccnc2)c2c3cc(-c4ccc(CO)nc4)ccc3ncc21 [Example 5.1, 8-(6-Hydroxymethyl-pyridin-3-yl)-3-methyl-1-pyridin-3-yl-1,3-dihydro-imidazo[4,5-c]quinolin-2-one] |  | 88
CCOc1ccc(-c2ccc3ncc4c(c3c2)n(-c2cccnc2F)c(=O)n4C)cn1 [Example 6.1, 8-(6-Ethoxy-pyridin-3-yl)-1-(2-fluoro-pyridin-3-yl)-3-methyl-1,3-dihydro-imidazo[4,5-c]quinolin-2-one] |  | 64
CN(C)c1ccc(-c2ccc3ncc4c(c3c2)n(-c2cccnc2)c(=O)n4C)cn1 [Example 5.3, 8-(6-Dimethylamino-pyridin-3-yl)-3-methyl-1-pyridin-3-yl-1,3-dihydro-imidazo[4,5-c]quinolin-2-one] |  | 193
Cc1ncccc1-n1c(=O)n(C)c2cnc3ccc(-c4ccc(CO)nc4)cc3c21 [Example 2.6, 8-(6-Hydroxymethyl-pyridin-3-yl)-3-methyl-1-(2-methyl-pyridin-3-yl)-1,3-dihydro-imidazo[4,5-c]quinolin-2-one] |  | 59
CNc1ncc(-c2ccc3ncc4c(c3c2)n(-c2ccc(N3CCC(O)C3)nc2C)c(=O)n4C)cn1 (centres unmarked) [Example 27.2, 1-[6-(3-Hydroxy-pyrrolidin-1-yl)-2-methyl-pyridin-3-yl]-3-methyl-8-(2-methylamino-pyrimidin-5-yl)-1,3-dihydro-imidazo[4,5-c]quinolin-2-one] | 55 | 
CNc1ncc(-c2ccc3ncc4c(c3c2)n(-c2ccc(N3CC(O)C3)nc2C)c(=O)n4C)cc1C(F)(F)F [Example 29.4, 1-[6-(3-Hydroxy-azetidin-1-yl)-2-methyl-pyridin-3-yl]-3-methyl-8-(6-methylamino-5-trifluoromethyl-pyridin-3-yl)-1,3-dihydro-imidazo[4,5-c]quinolin-2-one] | 13 | 
COc1cc(-c2ccc3ncc4c(c3c2)n(-c2ccc(N3CC(O)C3)nc2C)c(=O)n4C)cnc1CO [Example 29.5, 1-[6-(3-Hydroxy-azetidin-1-yl)-2-methyl-pyridin-3-yl]-8-(6-hydroxymethyl-5-methoxy-pyridin-3-yl)-3-methyl-1,3-dihydro-imidazo[4,5-c]quinolin-2-one] | 50 | 
CCNc1cc(-c2ccc3ncc4c(c3c2)n(-c2cccnc2C)c(=O)n4C)cnc1CO [Example 2.31, 8-(5-Ethylamino-6-hydroxymethyl-pyridin-3-yl)-3-methyl-1-(2-methyl-pyridin-3-yl)-1,3-dihydro-imidazo[4,5-c]quinolin-2-one] | 25 | 
CNc1cncc(-c2ccc3ncc4c(c3c2)n(-c2cccnc2C)c(=O)n4C)c1 [Example 2.26, 3-Methyl-8-(5-methylamino-pyridin-3-yl)-1-(2-methyl-pyridin-3-yl)-1,3-dihydro-imidazo[4,5-c]quinolin-2-one] | 46 | 
COCc1ncc(-c2ccc3ncc4c(c3c2)n(-c2ccc(N3CCC3)nc2C)c(=O)n4C)cc1OC(C)C [Example 23.2, 1-(6-Azetidin-1-yl-2-methyl-pyridin-3-yl)-8-(5-isopropoxy-6-methoxymethyl-pyridin-3-yl)-3-methyl-1,3-dihydro-imidazo[4,5-c]quinolin-2-one] | 31 | 
Cc1cccnc1-n1c(=O)n(C)c2cnc3ccc(-c4ccc(CO)nc4)cc3c21 [Example 3.9, 8-(6-Hydroxymethyl-pyridin-3-yl)-3-methyl-1-(3-methyl-pyridin-2-yl)-1,3-dihydro-imidazo[4,5-c]quinolin-2-one] |  | 583
Cc1nc(N2CCC2)ccc1-n1c(=O)n(C)c2cnc3ccc(-c4cncc(OC(C)C)c4)cc3c21 [Example 23.9, 1-(6-Azetidin-1-yl-2-methyl-pyridin-3-yl)-8-(5-isopropoxy-pyridin-3-yl)-3-methyl-1,3-dihydro-imidazo[4,5-c]quinolin-2-one] | 32 | 
CCOc1cc(-c2ccc3ncc4c(c3c2)n(-c2ccc(F)nc2C)c(=O)n4C)cnc1COC [Example 7.5, 8-(5-Ethoxy-6-methoxymethyl-pyridin-3-yl)-1-(6-fluoro-2-methyl-pyridin-3-yl)-3-methyl-1,3-dihydro-imidazo[4,5-c]quinolin-2-one] | 78 | 
CNc1ccc(-c2ccc3ncc4c(c3c2)n(-c2ccc(N3CCC3)nc2C)c(=O)n4C)cn1 [Example 23.4, 1-(6-Azetidin-1-yl-2-methyl-pyridin-3-yl)-3-methyl-8-(6-methylamino-pyridin-3-yl)-1,3-dihydro-imidazo[4,5-c]quinolin-2-one] | 48 | 
